Assay results: PubChem BioAssay (NCI)
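At the GI50, growth is halved. TGI marks complete inhibition of growth.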

Experiments:
Experiment in all cases: NCI tumour cell line growth inhibition, 384-well format
[1] = system: NCI-H322M lung
[2] = system: SK-MEL-28 melanoma
[3] = system: CCRF-CEM leukemia
[4] = system: OVCAR-8 ovarian
[5] = system: A549 NSCLC
[6] = system: OVCAR-3 ovarian
[7] = system: HCT-15 colon
[8] = system: COLO 205 colon
[9] = system: UO-31 renal
[10] = system: HCT-116 colon
[11] = system: OVCAR-5 ovarian
[12] = system: ACHN renal
[13] = system: MCF7 breast
[14] = system: NCI/ADR-RES ovarian
[15] = system: SR leukemia
[16] = system: SNB-19 CNS
[17] = system: TK-10 renal
[18] = system: MDA-MB-231 breast
[19] = system: U251 glioblastoma
[20] = system: SK-OV-3 ovarian
[21] = system: NCI-H23 lung
[22] = system: SW-620 colon
[23] = system: 786-0 renal
[24] = system: HOP-92 NSCLC
[25] = system: T-47D breast
[26] = system: RPMI-8226 leukemia
[27] = system: NCI-H522 lung
[28] = system: HL-60(TB) leukemia
[29] = system: LOX IMVI melanoma
[30] = system: UACC-62 melanoma
[31] = system: NCI-H460 NSCLC
[32] = system: SF-539 CNS
[33] = system: BT-549 breast
[34] = system: SK-MEL-5 melanoma
[35] = system: HCC-2998 colon
[36] = system: M14 melanoma
[37] = system: OVCAR-4 ovarian
[38] = system: MDA-MB-435 melanoma
[39] = system: MDA-MB-468 breast
[40] = system: KM12 colon
[41] = system: SK-MEL-2 melanoma
[42] = system: SN12C renal
[43] = system: A498 renal
[44] = system: NCI-H226 lung
[45] = system: UACC-257 melanoma
[46] = system: MALME-3M melanoma
[47] = system: K-562 leukemia
[48] = system: SF-295 CNS
[49] = system: HT29 colon
[50] = system: HOP-62 NSCLC
[51] = system: DU-145 prostate
[52] = system: SF-268 CNS
[53] = system: MOLT-4 leukemia
[54] = system: CAKI-1 renal
[55] = system: RXF 393 renal
[56] = system: PC-3 prostate

CCN1C(C)(C)CC(Oc2ccc(C(=O)Nc3ccc(NC(=O)Nc4cc(C(C)(C)C)on4)cc3)nc2)CC1(C)C
GI50 [1]: 2020 nM
TGI [1]: 4140 nM
GI50 [2]: 1580 nM
TGI [2]: 2940 nM
GI50 [3]: 1800 nM
TGI [3]: 3200 nM
GI50 [4]: 1770 nM
TGI [4]: 3190 nM
GI50 [5]: 1830 nM
TGI [5]: 3320 nM
GI50 [6]: 1690 nM
TGI [6]: 3100 nM
GI50 [7]: 1610 nM
TGI [7]: 2990 nM
GI50 [8]: 1790 nM
TGI [8]: 3200 nM
GI50 [9]: 1760 nM
TGI [9]: 3210 nM
GI50 [10]: 1630 nM
TGI [10]: 3010 nM
GI50 [11]: 2080 nM
TGI [11]: 3840 nM
GI50 [12]: 1750 nM
TGI [12]: 3200 nM
GI50 [13]: 1550 nM
TGI [13]: 2910 nM
GI50 [14]: 1820 nM
TGI [14]: 3720 nM
GI50 [15]: 1290 nM
TGI [15]: 2570 nM
GI50 [16]: 1980 nM
TGI [16]: 3480 nM
GI50 [17]: 1920 nM
TGI [17]: 3870 nM
GI50 [18]: 1770 nM
TGI [18]: 3230 nM
GI50 [19]: 1650 nM
TGI [19]: 3030 nM
GI50 [20]: 1710 nM
TGI [20]: 3100 nM
GI50 [21]: 3330 nM
TGI [21]: 8850 nM
GI50 [22]: 1940 nM
TGI [22]: 3380 nM
GI50 [23]: 1520 nM
TGI [23]: 2870 nM
GI50 [24]: 1650 nM
TGI [24]: 3160 nM
GI50 [25]: 1430 nM
TGI [25]: 2790 nM
GI50 [26]: 654 nM
TGI [26]: 1750 nM
GI50 [27]: 1770 nM
TGI [27]: 3160 nM
GI50 [28]: 2510 nM
TGI [28]: 5710 nM
GI50 [29]: 1860 nM
TGI [29]: 3270 nM
GI50 [30]: 1870 nM
TGI [30]: 3290 nM
GI50 [31]: 1800 nM
TGI [31]: 3240 nM
GI50 [32]: 1300 nM
TGI [32]: 2580 nM
GI50 [33]: 1550 nM
TGI [33]: 2900 nM
GI50 [34]: 1520 nM
TGI [34]: 2860 nM
GI50 [35]: 1600 nM
TGI [35]: 2980 nM
GI50 [36]: 1710 nM
TGI [36]: 3090 nM
GI50 [37]: 1560 nM
TGI [37]: 3770 nM
GI50 [38]: 2000 nM
TGI [38]: 3440 nM
GI50 [39]: 2030 nM
TGI [39]: 3560 nM
GI50 [40]: 1740 nM
TGI [40]: 3140 nM
GI50 [41]: 1250 nM
TGI [41]: 2500 nM
GI50 [42]: 1710 nM
TGI [42]: 3090 nM
GI50 [43]: 1600 nM
TGI [43]: 3020 nM
GI50 [44]: 1680 nM
TGI [44]: 3080 nM
GI50 [45]: 1330 nM
TGI [45]: 2610 nM
GI50 [46]: 1410 nM
TGI [46]: 2720 nM
GI50 [47]: 1600 nM
TGI [47]: 2970 nM
GI50 [48]: 1840 nM
TGI [48]: 3250 nM
GI50 [49]: 832 nM
TGI [49]: 2090 nM
GI50 [50]: 1880 nM
TGI [50]: 3340 nM
GI50 [51]: 1880 nM
TGI [51]: 3490 nM
GI50 [52]: 1680 nM
TGI [52]: 3110 nM
GI50 [53]: 1670 nM
TGI [53]: 3060 nM
GI50 [54]: 1620 nM
TGI [54]: 3220 nM
GI50 [55]: 384 nM
TGI [55]: 1470 nM
GI50 [56]: 1950 nM
TGI [56]: 3500 nM
